Laboratory results published in US11364248B2 (AMGEN INC., priority 2017, dated 2022).
Where two headings read alike, the source gives them in different places.

How the values were obtained:
[1] = target: Mcl-1/Bim interaction (Homo sapiens (Human), UniProt Q07820); assay: Cell Free Mcl-1: Bim Affinity Assay (Mcl-1 HTRF); format: binding; details: TR-FRET, recombinant human Mcl-1(171-327), biotin-Bim(51-76); read-out: Mel-1 HTRF IC50
Method in brief: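 TR-FRET competition assay: 0.1 nM His-tagged human Mcl-1(171-327) and 0.05 nM biotin-Bim(51-76) were pre-incubated 60 min with compound in 20 mM Hepes pH 7.5, 150 mM NaCl, Brij35, 1 mM DTT, then with Eu-anti-His/streptavidin-Xlent overnight. The 665/620 nm ratio was fitted by four-parameter model to IC50 (duplicates).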

[2] = system: OPM-2; assay: Cell Viability Assay (OPM-2 10 FBS); format: cell-based, human; details: OPM-2 cells, CellTiter-Glo, read-out: OPM-2 10% FBS IC50 IP
Method in brief: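 OPM-2 myeloma cells seeded at 3000 cells/well in RPMI 1640 with 10% FBS and exposed to serially diluted compounds for 16 h at 37° C., 5% CO2.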

Chain of Mcl-1/Bim interaction (Q07820 171-327): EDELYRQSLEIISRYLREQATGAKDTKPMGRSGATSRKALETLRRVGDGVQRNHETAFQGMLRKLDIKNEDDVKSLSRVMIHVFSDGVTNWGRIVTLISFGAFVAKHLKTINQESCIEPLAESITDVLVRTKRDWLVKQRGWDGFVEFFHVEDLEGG

| Compound | IC50 [1] [nM] | IC50 ([2]; Homo sapiens, OPM-2, 16 h) [nM] | IC50 ([2]; 16 h) [nM] |
| --- | --- | --- | --- |
| C[C@@H]1[C@@H](C)CCC[C@](C)([C@H]2OC[C@@H](N(C)C)CO2)[C@@H]2CC[C@H]2CN2C[C@@]3(CCCc4cc(Cl)ccc43)COc3ccc(cc32)C(=O)NS1(=O)=O [Example 65, (1S,3′R,6′R,7′S,11′S,12′R)-6-chloro-7′-(cis-5-(dimethylamino)-1,3-dioxan-2-yl)-7′,11′,12′-trimethyl-3,4-dihydro-2H,15′H-spiro[naphthalene-1,22′-[20]oxa[13]thia[1,14]diazatetracyclo [14.7.2.0~3,6~.0~19,24~]pentacosa[16,18,24]trien]-15′-one 13′,13′-dioxide] | 5.02 | 1560 | – |
| CCN(C)[C@H]1CO[C@@H]([C@H]2CCC[C@H](C)[C@@H](C)S(=O)(=O)NC(=O)c3ccc4c(c3)N(C[C@@H]3CC[C@H]32)C[C@@]2(CCCc3cc(Cl)ccc32)CO4)OC1 [Example 66, (1S,3′R,6′R,7′S,11′S,12′R)-6-chloro-7′-(cis-5-(ethyl(methyl)amino)-1,3-dioxan-2-yl)-11′,12′-dimethyl-3,4-dihydro-2H,15′H-spiro[naphthalene-1,22′-[20]oxa[13]thia[1,14]diazatetracyclo [14.7.2.0~3,6~.0~19,24~]pentacosa[16,18,24]trien]-15′-one 13′,13′-dioxide] | 1.29 | 326 | – |
| C[C@@H]1[C@@H](C)CCC[C@H]([C@H]2OC[C@@H](N(C)C3CC3)CO2)[C@@H]2CC[C@H]2CN2C[C@@]3(CCCc4cc(Cl)ccc43)COc3ccc(cc32)C(=O)NS1(=O)=O [Example 69, (1S,3′R,6′R,7′S,11′S,12′R)-6-chloro-7′-(cis-5-(cyclopropyl(methyl)amino)-1,3-dioxan-2-yl)-11′,12′-dimethyl-3,4-dihydro-2H,15′H-spiro[naphthalene-1,22′-[20]oxa[13]thia[1,14]diazatetracyclo [14.7.2.0~3,6~.0~19,24~]pentacosa[16,18,24]trien]-15′-one 13′,13′-dioxide] | 0.535 | – | 415 |
| C[C@@H]1[C@@H](C)CCC[C@H]([C@H]2OC[C@@H](N(C)C3CC3)CO2)[C@@H]2CC[C@H]2CN2C[C@@]3(CCCc4cc(Cl)ccc43)COc3ccc(cc32)C(=O)NS1(=O)=O [Example 70, (1S,3′R,6′R,7′S,11′S,12′R)-6-chloro-7′-(cis-5-(cyclopropyl(methyl)amino)-1,3-dioxan-2-yl)-11′,12′-dimethyl-3,4-dihydro-2H,15′H-spiro[naphthalene-1,22′-[20]oxa[13]thia[1,14]diazatetracyclo [14.7.2.0~3,6~.0~19,24~]pentacosa[16,18,24]trien]-15′-one 13′,13′-dioxide] | 1.31 | – | 1580 |
| COCCN(C)[C@H]1CO[C@@H]([C@H]2CCC[C@H](C)[C@@H](C)S(=O)(=O)NC(=O)c3ccc4c(c3)N(C[C@@H]3CC[C@H]32)C[C@@]2(CCCc3cc(Cl)ccc32)CO4)OC1 [Example 71, (1S,3′R,6′R,7′S,11′S,12′R)-6-chloro-7′-(cis-5-((2-methoxyethyl)(methyl)amino)-1,3-dioxan-2-yl)-11′,12′-dimethyl-3,4-dihydro-2H,15′H-spiro[naphthalene-1,22′-[20]oxa[13]thia[1,14]diazatetracyclo [14.7.2.0~3,6~.0~19,24~]pentacosa[16,18,24]trien]-15′-one 13′,13′-dioxide] | 0.217 | – | 90 |
| COCCN(C)[C@H]1CO[C@@H]([C@H]2CCC[C@H](C)[C@@H](C)S(=O)(=O)NC(=O)c3ccc4c(c3)N(C[C@@H]3CC[C@H]32)C[C@@]2(CCCc3cc(Cl)ccc32)CO4)OC1 [Example 72, (1S,3′R,6′R,7′S,11′S,12′R)-6-chloro-7′-(cis-5-((2-methoxyethyl)(methyl)amino)-1,3-dioxan-2-yl)-11′,12′-dimethyl-3,4-dihydro-2H,15′H-spiro[naphthalene-1,22′-[20]oxa[13]thia[1,14]diazatetracyclo [14.7.2.0~3,6~.0~19,24~]pentacosa[16,18,24]trien]-15′-one 13′,13′-dioxide] | 0.568 | – | 341 |
| C[C@@H]1CC[C@H]([C@H]2OC[C@@H](N(C)C)CO2)[C@@H]2CC[C@H]2CN2C[C@@]3(CCCc4cc(Cl)ccc43)COc3ccc(cc32)C(=O)NS(=O)(=O)C[C@@H]1C [Example 75, (1S,3′R,6′R,7′S,10′R,11′R)-6-chloro-7′-(cis-5-(dimethylamino)-1,3-dioxan-2-yl)-10′,11′-dimethyl-3,4-dihydro-2H,15′H-spiro[naphthalene-1,22′-[20]oxa[13]thia[1,14]diazatetracyclo [14.7.2.0~3,6~.0~19,24~]pentacosa[16,18,24]trien]-15′-one 13′,13′-dioxide] | 13 | – | 6770 |
| C[C@@H]1CC[C@H]([C@H]2OC[C@@H](N(C)C)CO2)[C@@H]2CC[C@H]2CN2C[C@@]3(CCCc4cc(Cl)ccc43)COc3ccc(cc32)C(=O)NS(=O)(=O)C[C@@H]1C [Example 76, (1S,3′R,6′R,7′S,10′R,11′R)-6-chloro-7′-(cis-5-(dimethylamino)-1,3-dioxan-2-yl)-10′,11′-dimethyl-3,4-dihydro-2H,15′H-spiro[naphthalene-1,22′-[20]oxa[13]thia[1,14]diazatetracyclo [14.7.2.0~3,6~.0~19,24~]pentacosa[16,18,24]trien]-15′-one 13′,13′-dioxide] | 6.24 | – | 2480 |
| C[C@@H]1[C@@H](C)CCC[C@H]([C@H]2OC[C@](N)(CO)CO2)[C@@H]2CC[C@H]2CN2C[C@@]3(CCCc4cc(Cl)ccc43)COc3ccc(cc32)C(=O)NS1(=O)=O [Example 79, (1S,3′R,6′R,7′S,11′S,12′R)-7′-(cis-5-amino-5-(hydroxymethyl)-1,3-dioxan-2-yl)-6-chloro-11′,12′-dimethyl-3,4-dihydro-2H,15′H-spiro[naphthalene-1,22′-[20]oxa[13]thia[1,14]diazatetracyclo [14.7.2.0~3,6~.0~19,24~]pentacosa[16,18,24]trien]-15′-one 13′,13′-dioxide] | 0.704 | – | 829 |
| COC[C@H]1[C@@H](C)CCC[C@H]([C@H]2OC[C@@H](N(C)C)CO2)[C@@H]2CC[C@H]2CN2C[C@@]3(CCCc4cc(Cl)ccc43)COc3ccc(cc32)C(=O)NS1(=O)=O [Example 87, (1S,3′R,6′R,7′S,11′S,12′R)-6-chloro-7′-(cis-5-(dimethylamino)-1,3-dioxan-2-yl)-12′-(methoxymethyl)-11′-methyl-3,4-dihydro-2H,15′H-spiro[naphthalene-1,22′-[20]oxa[13]thia[1,14]diazatetracyclo [14.7.2.0~3,6~.0~19,24~]pentacosa[16,18,24]trien]-15′-one 13′,13′-dioxide] | 5.71 | – | 735 |
| COC[C@H]1[C@@H](C)CCC[C@H]([C@H]2OC[C@@H](N(C)C)CO2)[C@@H]2CC[C@H]2CN2C[C@@]3(CCCc4cc(Cl)ccc43)COc3ccc(cc32)C(=O)NS1(=O)=O [Example 88, (1S,3′R,6′R,7′S,11′S,12′R)-6-chloro-7′-(cis-5-(dimethylamino)-1,3-dioxan-2-yl)-12′-(methoxymethyl)-11′-methyl-3,4-dihydro-2H,15′H-spiro[naphthalene-1,22′-[20]oxa[13]thia[1,14]diazatetracyclo [14.7.2.0~3,6~.0~19,24~]pentacosa[16,18,24]trien]-15′-one 13′,13′-dioxide] | 4.37 | – | 335 |
